Experimental data as given in US10821160B2, “L-asparaginase variants and fusion proteins with reduced L-glutaminase activity and enhanced stability” (priority 2016, dated 2020).
Where “and” joins values, the source holds several entries; their conditions need not be identical. Equal entries are not always repeated.

What was measured:
[1] = target: T1, Erwinia chrysanthemi L-asparaginase (ErA) variant A31I-E63Q-S254N (ErA-TM1), SEQ ID NO:7 (Dickeya chrysanthemi, UniProt P06608, A52I/E84Q/S275N); assay type: biochemical; conditions: 37° C
T1 construct: lacking the first 21-amino acid residue signal peptide; His6-SUMO (yeast Smt3p) (N, cleaved yes); made in house; host or cells: E. coli BL21(DE3) C41
Protocol: (§6) L-asparaginase activity was determined using a continuous spectroscopic enzyme-coupled assay as previously described (Schalk, et al. (2014) J. Biol. Chem. 289:33175-33186). In brief, the assay measures the production of L-aspartate through the 1:1 oxidation of reduced NADH. The conversion of NADH to NAD^+ was measured spectrophotometrically as a decrease in absorbance at 340 nm at 37° C. All measurements were taken in triplicate. Rates were fit to the Michaelis-Menten equation using SIGMAPLOT software (Systat Software Inc).

[2] = target: T2, Erwinia chrysanthemi L-asparaginase (ErA) variant E63Q-S254N (ErA-DM1), SEQ ID NO:3 (Dickeya chrysanthemi, UniProt P06608, E84Q/S275N); assay type: biochemical
T2 construct: lacking the first 21-amino acid residue signal peptide; His6-SUMO (yeast Smt3p) (N, cleaved yes); made in house; host or cells: E. coli BL21(DE3) C41
Protocol: as §6

[3] = target: T3, Erwinia chrysanthemi L-asparaginase, wild type (ErA-WT), SEQ ID NO:1 (Dickeya chrysanthemi, UniProt P06608); test: L-asparaginase activity, continuous spectroscopic enzyme-coupled assay; assay type: biochemical; conditions: 37° C
T3 construct: lacking the first 21-amino acid residue signal peptide; His6-SUMO (yeast Smt3p) (N, cleaved yes); made in house; host or cells: E. coli BL21(DE3) C41
Protocol: (§1) In brief, the assay measures the production of L-aspartate through the 1:1 oxidation of reduced NADH. The conversion of NADH to NAD^+ was measured spectrophotometrically as a decrease in absorbance at 340 nm at 37° C. All measurements were taken in triplicate. Rates were fit to the Michaelis-Menten equation using SIGMAPLOT software (Systat Software Inc).
(§2) The parameters that define the asparagine-depleting power of such enzyme drugs are of significance. […] Enzymologists often combine these two parameters into a single value (kcat/Km) that is thought to represent the efficiency of the enzyme.
(§3) Using colorimetric enzyme-coupled assays, L-asparaginase and L-glutaminase activity of the enzymes was determined.

[4] = tested on: Erwinia chrysanthemi L-asparaginase (ErA) variants ErA-E63Q, ErA-DM2 (A31I-E63Q) and ErA-DM1 (E63Q-S254N); test: L-asparaginase activity of the mutants as a group vs ErA-WT; assay type: biochemical; conditions: Asn
Protocol: as §1, with “L-asparaginase activity was determined using a continuous spectroscopic enzyme-coupled assay as previously described (Schalk, et al. (2014) J. Biol. Chem. 289:33175-33186). In brief,” for “In brief,”
(§4) Using colorimetric enzyme-coupled assays, L-asparaginase and L-glutaminase activity of the enzymes was determined. […] Seventeen of the 18 mutants had reduced L-glutaminase activity (Table 7). However, for most of the mutants, this decrease was concomitant with a decline in the L-asparaginase activity. Using the criteria of (i) ≥60% retained L-asparaginase activity (relative to Erw-WT) and (ii) ≤5% L-glutaminase versus and L-asparaginase activity, mutants ErA-E63Q, ErA-S254P, ErA-A31I+E63Q and ErA-S254N+E63Q were selected for further study.

[5] = target: T4, Escherichia coli L-asparaginase, wild type (EcA-WT), SEQ ID NO:9 (Escherichia coli, UniProt P00805); test: L-asparaginase activity, continuous spectroscopic enzyme-coupled assay; assay type: biochemical; conditions: 37° C
T4 sequence (P00805 with tags, fused parts or gaps): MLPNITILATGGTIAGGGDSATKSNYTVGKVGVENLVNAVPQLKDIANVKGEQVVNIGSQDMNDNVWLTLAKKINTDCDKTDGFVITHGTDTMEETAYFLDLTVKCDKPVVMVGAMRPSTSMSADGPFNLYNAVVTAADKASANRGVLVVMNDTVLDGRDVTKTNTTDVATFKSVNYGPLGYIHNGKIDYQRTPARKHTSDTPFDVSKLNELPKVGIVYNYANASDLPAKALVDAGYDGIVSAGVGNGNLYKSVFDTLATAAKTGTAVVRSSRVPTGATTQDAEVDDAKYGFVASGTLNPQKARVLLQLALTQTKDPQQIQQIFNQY
Protocol: as §1, with “L-asparaginase activity was determined using a continuous spectroscopic enzyme-coupled assay as previously described (Schalk, et al. (2014) J. Biol. Chem. 289:33175-33186). In brief,” for “In brief,”
as §2, with “enzyme. […] Therefore, the ErA enzyme was selected for developing a variant with low L-glutaminase activity.” for “enzyme.”

[6] = target: T5, Erwinia chrysanthemi L-asparaginase (ErA) variant S254P (ErA-S254P) (Dickeya chrysanthemi, UniProt P06608, S275P); assay type: biochemical; conditions: 37° C
T5 construct: lacking the first 21-amino acid residue signal peptide; His6-SUMO (yeast Smt3p) (N, cleaved yes); made in house; host or cells: E. coli BL21(DE3) C41
Protocol: as §1, with “L-asparaginase activity was determined using a continuous spectroscopic enzyme-coupled assay as previously described (Schalk, et al. (2014) J. Biol. Chem. 289:33175-33186). In brief,” for “In brief,”
as §4

[7] = target: T6, Erwinia chrysanthemi L-asparaginase (ErA) variant A31I-E63Q (ErA-DM2), SEQ ID NO:4 (Dickeya chrysanthemi, UniProt P06608, A52I/E84Q); assay type: biochemical; conditions: 37° C
T6 construct: lacking the first 21-amino acid residue signal peptide; His6-SUMO (yeast Smt3p) (N, cleaved yes); made in house; host or cells: E. coli BL21(DE3) C41
Protocol: as §1, with “L-asparaginase activity was determined using a continuous spectroscopic enzyme-coupled assay as previously described (Schalk, et al. (2014) J. Biol. Chem. 289:33175-33186). In brief,” for “In brief,”
as §4

[8] = target: T7, 10K PEGylated Erwinia chrysanthemi L-asparaginase (ErA) variant A31I-E63Q-S254Q-D84C (10K PEGylated-ErA-TM2-D84C) (Dickeya chrysanthemi, UniProt P06608, A52I/D105C/E84Q/S275Q); test: L-asparaginase activity, comparison with ErA-TM2; assay type: biochemical
T7 construct: lacking the first 21-amino acid residue signal peptide; made in house
Protocol: as §1, with “L-asparaginase activity was determined using a continuous spectroscopic enzyme-coupled assay as previously described (Schalk, et al. (2014) J. Biol. Chem. 289:33175-33186). In brief,” for “In brief,”
(§5) The resulting […] protein was expressed, purified and PEGylated with mPEG-10K.

[9] = target: T8, Erwinia chrysanthemi L-asparaginase (ErA) variant A31I-E63Q-S254Q-D84C (ErA-TM2-D84C) (Dickeya chrysanthemi, UniProt P06608, A52I/D105C/E84Q/S275Q); test: L-asparaginase activity, comparison with ErA-TM2; assay type: biochemical
T8 construct: lacking the first 21-amino acid residue signal peptide; made in house
Protocol: as §1, with “L-asparaginase activity was determined using a continuous spectroscopic enzyme-coupled assay as previously described (Schalk, et al. (2014) J. Biol. Chem. 289:33175-33186). In brief,” for “In brief,”
as §5

[10] = target: Erwinia chrysanthemi L-asparaginase (ErA) variant A31I-E63Q-S254Q (ErA-TM2), SEQ ID NO:6 (Dickeya chrysanthemi, UniProt P06608, A52I/E84Q/S275Q); assay type: biochemical; set-up: lacking the first 21-amino acid residue signal peptide; His6-SUMO (yeast Smt3p) (N, cleaved yes); made in house; host or cells: E. coli BL21(DE3) C41
Protocol: as §1, with “L-asparaginase activity was determined using a continuous spectroscopic enzyme-coupled assay as previously described (Schalk, et al. (2014) J. Biol. Chem. 289:33175-33186). In brief,” for “In brief,”
as §3

[11] = target: Erwinia chrysanthemi L-asparaginase (ErA) variant E63Q (ErA-E63Q), SEQ ID NO:2 (Dickeya chrysanthemi, UniProt P06608, E84Q); conditions: 37° C
Protocol: as §1, with “L-asparaginase activity was determined using a continuous spectroscopic enzyme-coupled assay as previously described (Schalk, et al. (2014) J. Biol. Chem. 289:33175-33186). In brief,” for “In brief,”
as §2, §3

[12] = target: T9, Erwinia chrysanthemi L-asparaginase (ErA) variant E63Q-S254Q (ErA-DM3), SEQ ID NO:5 (Dickeya chrysanthemi, UniProt P06608, E84Q/S275Q); assay type: biochemical; conditions: 37° C
T9 construct: lacking the first 21-amino acid residue signal peptide; His6-SUMO (yeast Smt3p) (N, cleaved yes); made in house; host or cells: E. coli BL21(DE3) C41
Protocol: as §1, with “L-asparaginase activity was determined using a continuous spectroscopic enzyme-coupled assay as previously described (Schalk, et al. (2014) J. Biol. Chem. 289:33175-33186). In brief,” for “In brief,”
as §2, §3

NC(=O)C[C@H](N)C(=O)O [Asn, L-asparagine]
kobs @20 μM ([1]; 20 μM Asn): 16.4 s⁻¹ | kobs @50 μM ([1]; 50 μM Asn): 29.2 s⁻¹ | kcat ([1]; Asn): 109.7 ± 0.8 s⁻¹ | kobs @20 μM ([2]; 20 μM Asn, 37° C): 18.9 s⁻¹ | kobs @50 μM ([2]; 50 μM Asn, 37° C): 36.3 s⁻¹ | kcat ([2]; Asn, 37° C): 169.8 ± 1.5 s⁻¹ | increase in Asn Km ([2]; Asn, relative to ErA-WT): 4 fold | kobs @20 μM ([3]; 20 μM Asn): 50.7 s⁻¹ | kobs @50 μM ([3]; 50 μM Asn): 105.3 s⁻¹ | near wild-type kcat (range, of ErA-WT) [4]: 60-90% | kobs @20 μM ([5]; 20 μM Asn): 28.3 s⁻¹ | kobs @50 μM ([5]; 50 μM Asn): 41.3 s⁻¹ | kobs @20 μM ([6]; 20 μM Asn): 4.5 s⁻¹ | kobs @50 μM ([6]; 50 μM Asn): 10.5 s⁻¹ | Km ([6]; Asn): 1.15 ± 0.0255 mM | kcat ([6]; Asn): 250.0 ± 2.8 s⁻¹ | kobs @20 μM ([7]; 20 μM Asn): 38.8 s⁻¹ | kobs @50 μM ([7]; 50 μM Asn): 69.7 s⁻¹ | Km ([7]; Asn): 36.9 ± 2.2 µM | kcat ([7]; Asn): 123.0 ± 1.8 s⁻¹ | kobs at 2 mM Asn [8]: 163.4 s⁻¹ | kobs at 2 mM Asn [9]: 172.8 s⁻¹ | kobs @20 μM ([10]; 20 μM Asn, 37° C): 40.8 s⁻¹ | kobs @50 μM ([10]; 50 μM Asn, 37° C): 89.1 s⁻¹ | kobs at 2 mM Asn ([10]; 2 mM Asn): 178.8 s⁻¹ | Km ([10]; Asn, 37° C): 95 ± 3.5 µM | kcat ([10]; Asn, 37° C): 261.2 ± 2.8 s⁻¹ | kobs @20 μM ([11]; 20 μM Asn): 46.3 s⁻¹ | kobs @50 μM ([11]; 50 μM Asn): 92.2 s⁻¹ | Km ([11]; Asn): 48.1 µM and 50.7 µM | kobs @20 μM ([12]; 20 μM Asn): 14.2 s⁻¹ | kobs @50 μM ([12]; 50 μM Asn): 36.3 s⁻¹ and 30.8 s⁻¹ | Km ([12]; Asn): 179 ± 5.6 µM | kcat ([12]; Asn): 147.3 ± 1.0 s⁻¹
